# Counter-ions that a name gives are not always drawn.
# Tested on: brain
# Assay: Transcriptional profiling, multi-dosing regimen, naïve mice: brain
# Type: in vivo
# Settings: for FC: BRAIN_HEMI, 100MMF-vs-Veh
# Description: In vivo, DMF is rapidly metabolized to monomethyl fumarate (MMF). […] Animals were exposed to CO2 and whole blood collected via cardiac puncture. Two 100 μl aliquots of whole blood were collected in 1.5 mL microcentrifuge tubes and snap frozen in liquid nitrogen. Peripheral (liver, spleen, kidney and jejunum) and CNS brain (cerebellum, hippocampus, striatum and cortex) tissues were harvested and snap frozen in liquid nitrogen, with special care taken to collect tissues of similar size and from the same location. All samples were stored at -80° C. until RNA extraction was conducted. For RNA preparation, frozen tissues were placed in 2 mL RNAse-free 96-well blocks with 1.5 mL QIAzol Lysis Reagent (QIAgen) and a 3.2 mm stainless steel bead (BioSpec Products, Bartlesville, Okla.). Tissues were disrupted for four cycles of 45 seconds in a Mini-Beadbeater (Biospec Products). RNA was extracted in chloroform and the aqueous phase was mixed with an equal volume of 70% ethanol. Extracted RNA was applied to RNeasy 96 plates and purified by the spin method according to the manufacturer's protocol (RNeasy 96 Universal Tissue Protocol, QIAgen, Hilden Germany). […] Two micrograms of biotin labeled […] probe were hybridized to Affymetrix GeneChip Affymetrix HT_MG-430_PM plate arrays with modified conditions as described in […] et al. Washing and staining of the hybridized arrays were completed as described in the GeneChip Expression analysis technical manual for HT plate arrays using the Genechip® Array Station (Affymetrix, Santa Clara, Calif.) with modifications as described in […] et al. The processed GeneChip® plate arrays were scanned using GeneTitan scanner (Affymetrix, Santa Clara, Calif.). Affymetrix scans were subject to quality control (QC) measures. These tests included a visual inspection of the distribution of raw signal intensities and an assessment of RNA degradation, relative log expression (RLE), and normalized unsealed standard error (NUSE). All sample scans that passed these QC metrics were included in the analysis. All CEL files were subjected to GC-content-based Robust Multi-array Average (GCRMA) normalization (version 2.20.0) (Irizarry R A, et al. Nucleic Acids Res 2003; 31:e15; Li C, et al. […] Stat Appl Genet Mol Biol 2004; 3:Article3). […] Springer Science+Business Media 2005). Changes in gene expression were studied by applying a linear modeling approach to fit gene expression levels according to the defined groups of samples (e.g. DMF-, MMF-, and Vehicle-treated animals) and Bayesian posterior error analysis as implemented by Smyth (Smyth G K. Stat Appl Genet Mol Biol 2004; 3:Article3). The comparisons considered included: DMF-vs-MMF, DMF-vs-Vehicle, and MMF-vs-Vehicle. […] Very few DEGs are observed in blood and tissues derived from the central nervous system (brain, cerebellum, cortex, striatum, and spinal cord).
structure (smiles),measurement,setting,value
"COC(=O)/C=C/C(=O)O [MMF, monomethyl fumarate]",FC,0610037L13Rik 1429879_PM_at,−1.51
same,FC,1436646_PM_at (no gene symbol),−1.53
same,FC,1437987_PM_at (no gene symbol),−1.66
same,FC,1438259_PM_at (no gene symbol),−1.59
same,FC,2310079F09Rik 1433201_PM_at,2.17
same,FC,2610021A01Rik 1438786_PM_a_at,−1.90
same,FC,2610044O15Rik 1428693_PM_at,−1.52
same,FC,2900062L11Rik 1428333_PM_at,−1.50
same,FC,4930432O21Rik 1434625_PM_at,−1.66
same,FC,4930453N24Rik 1438553_PM_x_at,−1.61
same,FC,4933421E11Rik 1428162_PM_at,−1.50
same,FC,A730017C20Rik 1437528_PM_x_at,−2.06
same,FC,AI597468 1433897_PM_at,−1.51
same,FC,AI747699 1433914_PM_at,−2.28
same,FC,Abi1 1438506_PM_s_at,−2.04
same,FC,Acad9 1429581_PM_at,−1.55
same,FC,Akr1a4 1430123_PM_a_at,−1.75
same,FC,Aldh9a1 1436689_PM_a_at,−1.63
same,FC,Aldh18a1 1437325_PM_x_at,−1.51
same,FC,Ampd2 1438941_PM_x_at,−1.76
same,FC,Apex1 1437715_PM_x_at,−1.52
same,FC,Appl1 1436116_PM_x_at,−1.62
same,FC,Arhgap21 1428369_PM_s_at,−1.66
same,FC,Atp13a5 1436411_PM_at,−1.51
same,FC,Atxn10 1438653_PM_x_at,−1.69
same,"FC, Depp (1433836_PM_a_at)","BrainHemi, multi-dosing, MMF-vs-Vehicle",−1.01
same,FC,Btg1 /// LOC100047353 1437455_PM_a_at,−1.55
same,FC,Cadm2 1429211_PM_at,−1.76
same,FC,Cadm2 1435146_PM_s_at,−2.25
same,FC,Cherp 1436885_PM_a_at,−1.99
same,FC,Chuk 1428210_PM_s_at,−1.68
same,FC,Clcc1 1436390_PM_a_at,−1.64
same,FC,Clvs1 1433906_PM_at,−1.54
same,FC,Cpt1a 1434866_PM_x_at,−1.81
same,FC,Cttnbp2 1435435_PM_at,−1.75
same,FC,Dab2 1429693_PM_at,1.53
same,FC,Ddx5 1438371_PM_x_at,−1.52
same,FC,Derl1 1437723_PM_s_at,−1.51
same,FC,Dnpep 1438557_PM_x_at,−1.50
same,FC,Enoph1 1437327_PM_x_at,−1.62
same,FC,Fam13c 1436761_PM_s_at,−1.83
same,FC,Fbxo11 1434108_PM_at,−1.50
same,FC,Gm5256 /// Gm5529 /// Slc25a5 1438360_PM_x_at,−1.53
same,FC,Gm5256 /// Gm5529 /// Slc25a5 1438922_PM_x_at,−1.51
same,FC,Gm6159 /// Hnrnpr 1437526_PM_x_at,−1.61
same,FC,Gm11793 /// Hnrnpf 1437099_PM_x_at,−1.53
same,FC,Gm13342 /// Gm15776 /// Gm3150 /// Gng5 /// LOC100044719 1436946_PM_s_at,−1.70
same,FC,Gm14288 1429712_PM_at,−1.68
same,FC,Gns 1433488_PM_x_at,−2.01
same,FC,Gria4 1436772_PM_at,−1.57
same,FC,Hadhb 1437172_PM_x_at,−1.86
same,FC,Hbxip 1436152_PM_a_at,−1.65
same,FC,Higd1c /// Mettl7a1 /// Mettl7a2 1434150_PM_a_at,−1.60
same,FC,Hnrpdl 1428224_PM_at,−1.60
same,FC,Hs3st2 1438624_PM_x_at,−1.86
same,FC,Impa1 1436848_PM_x_at,−1.55
same,FC,Ing1 1433267_PM_at,1.53
same,FC,Ipo4 1436420_PM_a_at,−1.64
same,FC,Itgb8 1436223_PM_at,−1.59
same,FC,LOC100047324 /// Sesn1 1438931_PM_s_at,−1.97
same,FC,Laptm4b 1436915_PM_x_at,−1.68
same,FC,Lasp1 1438634_PM_x_at,−1.50
same,FC,Mettl9 1438171_PM_x_at,−1.63
same,FC,Mthfd2l 1429599_PM_a_at,−1.71
same,FC,Ncoa2 1435233_PM_at,−1.55
same,FC,Ndufb6 1434056_PM_a_at,−1.56
same,FC,Nelf 1436959_PM_x_at,−1.65
same,FC,Nxph1 1436718_PM_at,−1.56
same,FC,Paics 1436298_PM_x_at,−1.57
same,FC,Paqr3 1429216_PM_at,−1.56
same,FC,Phyhipl 1437062_PM_s_at,−1.69
same,FC,Pisd-ps1 /// Pisd-ps3 1436944_PM_x_at,−2.43
same,FC,Pofut2 1437845_PM_x_at,−1.98
same,FC,Poldip3 1437837_PM_x_at,−1.74
same,FC,Polr3a 1437525_PM_a_at,−1.76
same,FC,Ppip5k2 1433856_PM_at,−1.57
same,FC,Prkg2 1435162_PM_at,−1.69
same,FC,Prss23 1437671_PM_x_at,−1.74
same,FC,Ptpdc1 1433823_PM_at,−1.59
same,FC,Ptpn2 1438562_PM_a_at,−1.74
same,FC,Rgs19 1434940_PM_x_at,−1.51
same,FC,Rif1 1429490_PM_at,−1.82
same,FC,Rnf14 1437035_PM_x_at,−1.68
same,FC,Rnf157 1434427_PM_a_at,−1.67
same,FC,Sfrs13b 1437168_PM_at,−1.66
same,FC,Slc9a3r1 1438115_PM_a_at,−1.85
same,FC,Slc12a6 1436989_PM_s_at,−1.80
same,FC,Snx16 1438803_PM_s_at,−1.55
same,FC,Sp4 1437508_PM_at,−1.54
same,Number of differentially expressed genes identified: Brain Hemi,"Table 13: Naïve, Single Dose (so in the source), 90 mpk MMF-vs-Vehicle, 12 h after last dosing",280
same,FC,Tchh 1434425_PM_at,−1.64
same,FC,Tmem41b 1428586_PM_at,−1.89
same,FC,Tox3 1436600_PM_at,−1.56
same,FC,Trim9 1434249_PM_s_at,−1.58
same,FC,Ttc14 1437878_PM_s_at,−1.64
same,FC,Tubgcp4 1433659_PM_at,−1.54
same,FC,Uba2 1437278_PM_a_at,−1.50
same,FC,Uba3 1435164_PM_s_at,−1.65
same,FC,Zdhhc20 1434236_PM_at,−1.64
same,FC,Zfp110 1437236_PM_a_at,−1.77
same,FC,Zfp260 1436495_PM_s_at,−1.65
same,FC,Zfp788 1429371_PM_at,−1.65
